In US10196365B2, “Quinazoline derivative, preparation method therefor, and pharmaceutical composition and application thereof” (ARROMAX PHARMATECH CO., LTD., priority 2014, dated 2019):
Marks after values point to notes of the source that are not given here.

Tests used:
Her-2 enzyme = Her-2 enzyme (Homo sapiens (Human), UniProt P04626); test: HTRF kinEASE TK in vitro kinase assay, Her-2; format: biochemical; conditions: 30 min enzyme reaction, read-out: IC50 against Her-2
Procedure: The kinase analysis in vitro was performed using the HTRF kinEASE TK kit of Invitrogen Co., the procedure steps were carried out according to instructions of kit, the method then was used to detect the inhibitory effects of test compounds on substrate peptide phosphorylation of the EGFR receptor tyrosine kinase and Her-2 activity enzyme in vitro. Specific steps are as follows:
b) 2 microliters of the previously prepared TK-biotin substrate solution of EGFR and Her-2 enzyme corresponding to the substrate concentration were added to all the reaction holes.
The holes were sealed with sealing film for microplate, mixed and incubated at room temperature for 10 min to allow the compounds and enzymes fully combine.
d) 2 microliters of ATP solutions with concentration corresponding to EGFR and Her-2 enzyme were added to all the reaction holes to start the kinase reaction, the enzyme reaction time of EGFR and HER2 are 30 min.
e) The EGFR and Her-25 detection solution were prepared 5 min before the end of the kinase reaction. Streptavidin-XL665 and TK europium cryptate (1:100) detection solution corresponding to the two enzymes were prepared respectively by using detection buffer in the kit.
f) 5 microliters of diluted Streptavidin-XL665 were added to all the reaction holes after the kinase reaction was over, diluted TK antibody europium cryptate detection solutions were then added immediately after fully mixed.

[1] = test system: A431 (human epithelial carcinoma cell lines); test: Growth inhibition test in tumor cells (CCK8), A431; format: cell-based; conditions: A-431, 72 h
Procedure: (§1) i) Logarithmic growth phase cells were collected and counted, the cells were suspended again with complete medium, the cell concentration was adjusted to an appropriate concentration (determined according to the results of cell density optimization test), inoculated to 96 plates, each of which with 100 mL cells suspension.

[2] = test system: A549 (human lung cancer cell lines); test: Growth inhibition test in tumor cells (CCK8), A549; format: cell-based; conditions: 72 h
Procedure: as §1

[3] = test system: NCI H1975 (human non-small cell lung cancer cell lines); test: Growth inhibition test in tumor cells (CCK8), NCI-H1975; format: cell-based; conditions: 72 h
Procedure: as §1

[4] = test system: HCC 827 (human non-small cell lung cancer cell line); test: Growth inhibition test in tumor cells (CCK8), HCC827; format: cell-based; conditions: HCC 827 cells, 72 h
Procedure: as §1

[5] = test system: MDA-MB-453 (human breast cancer cell lines); test: Growth inhibition test in tumor cells (CCK8), MDA-MB-453; format: cell-based; conditions: MDA-MB-453 cells, 72 h
Procedure: Growth Inhibition Tests of a Series of Compounds in Different Tumor Cells
i. Cell lines: A431 (human epithelial carcinoma cell lines), A549 (human lung cancer cell lines), NCI H1975 (human non-small cell lung cancer cell lines (HCC), HCC 827 (human non-small cell lung cancer cell line), MDA-MB-453 (human breast cancer cell lines)
MDA-MB-453 cell line: 90% L15+10% FBS; trypsin (a 0.25% (W/V) solution was prepared with […], 0.53 mM EDTA was added);
i) Logarithmic growth phase cells were collected and counted, the cells were suspended again with complete medium,
ii) The cell concentration was adjusted to an appropriate concentration, inoculated to 96 holes, each of which with 100 μL cells suspension.
iii) The cells were incubated in a 37° C., 100% relative humidity and 5% CO2 incubator, for 24 h.
i) Logarithmic growth phase cells were collected and counted, the cells were suspended again with complete medium, the cell concentration was adjusted to an appropriate concentration (determined according to the results of cell density optimization test), inoculated to 96 plates, each of which with […] cells suspension. The cells were incubated in a 37° C., 100% relative humidity and 5% CO2 incubator for 24 h.
ii) The test compounds were diluted to the corresponding concentration stated by culture medium, and the cells were inoculated as 25 μL/hole. The final concentration of the compound was from 10 μM to 0 μM, with a gradient of 4 times, and 10 concentration points totally.
iii) The cells were incubated in a 37° C., 100% relative humidity, 5% CO2 incubator for 72 h.
iv) Absorbing the culture medium, the complete medium containing 10% CCK-8 was added and incubated in the incubator of 37° C. for 2-4 h.
v) After a slight shake, the absorbance at 450 nm was measured by SpectraMax M5 Microplate Reader, taking the absorbance at 650 nm as a reference, the inhibition rate was calculated.
The IC50 curve fitting was performed by using the software Graphpad Prism 5 and the calculation formula log (inhibitor) vs. response to calculate the IC50 value.

[6] = test system: NCI-H1975 nude mice transplanted tumor; test: In vivo pharmacodynamics evaluation, NCI-H1975 nude mice transplanted tumor; design: species or system BALB/c nude mice; conditions: 20 mg/kg, qd, gavage, 14 days
Procedure: BALB/c nude mice, female, 6 to 7 weeks of age, weight 20 g±2 g, purchased from Shanghai silaike experimental animal Co. Ltd., SPF environment.
The logarithmic growth phase NCI-H1975 cells cultured in vitro were digested with trypsin, washed with PBS for three times, the cell survival rate was detected by trypan blue exclusion to be >90%, the cell concentration was adjusted to 1×10^7/mL with PBS, which was implanted subcutaneously in back forelimb of the nude mice with 0.2 mL/pcs under aseptic condition. After tumor formation, the tumor were cultured for two passages in vivo, the tumor were stripped out to sterile culture plate when growing to the volume of 300 to 500 mm^3, a small amount of PBS was added, the tumor tissue with vigorous growth were cut into about 1.5 mm^3 tumor blocks, inoculated in right armpit of the nude mice. The diameter of tumor was measured with vernier caliper, when the tumor grew to 100 to 200 mm^3, then the animal were randomly grouping, […], gavage administration, once a day or every other day, continuously administrated for 14 days (d14) and observed for 7 days (d22), the negative control group was administrated with the same amount of solvent (saline solution of 1% DMSO), during the period of administration and recovery, the body weight and tumor size of the nude mice were measured weekly 2 to 3 times. The tumor volume and relative tumor volume were calculated according to the measured data, and the calculation formula of the tumor volume (TV) was TV=1/2×a×b^2, of which a and b represent the tumor length and diameter respectively. The relative tumor volume (RTV) was calculated according to the measured results, and the calculation formula was: RTV=Vt/V0, wherein V0 represents the tumor volume at the beginning of the experiment, Vt represents the volume of the tumor each measured.

Chain of Her-2 enzyme (P04626 23-1255): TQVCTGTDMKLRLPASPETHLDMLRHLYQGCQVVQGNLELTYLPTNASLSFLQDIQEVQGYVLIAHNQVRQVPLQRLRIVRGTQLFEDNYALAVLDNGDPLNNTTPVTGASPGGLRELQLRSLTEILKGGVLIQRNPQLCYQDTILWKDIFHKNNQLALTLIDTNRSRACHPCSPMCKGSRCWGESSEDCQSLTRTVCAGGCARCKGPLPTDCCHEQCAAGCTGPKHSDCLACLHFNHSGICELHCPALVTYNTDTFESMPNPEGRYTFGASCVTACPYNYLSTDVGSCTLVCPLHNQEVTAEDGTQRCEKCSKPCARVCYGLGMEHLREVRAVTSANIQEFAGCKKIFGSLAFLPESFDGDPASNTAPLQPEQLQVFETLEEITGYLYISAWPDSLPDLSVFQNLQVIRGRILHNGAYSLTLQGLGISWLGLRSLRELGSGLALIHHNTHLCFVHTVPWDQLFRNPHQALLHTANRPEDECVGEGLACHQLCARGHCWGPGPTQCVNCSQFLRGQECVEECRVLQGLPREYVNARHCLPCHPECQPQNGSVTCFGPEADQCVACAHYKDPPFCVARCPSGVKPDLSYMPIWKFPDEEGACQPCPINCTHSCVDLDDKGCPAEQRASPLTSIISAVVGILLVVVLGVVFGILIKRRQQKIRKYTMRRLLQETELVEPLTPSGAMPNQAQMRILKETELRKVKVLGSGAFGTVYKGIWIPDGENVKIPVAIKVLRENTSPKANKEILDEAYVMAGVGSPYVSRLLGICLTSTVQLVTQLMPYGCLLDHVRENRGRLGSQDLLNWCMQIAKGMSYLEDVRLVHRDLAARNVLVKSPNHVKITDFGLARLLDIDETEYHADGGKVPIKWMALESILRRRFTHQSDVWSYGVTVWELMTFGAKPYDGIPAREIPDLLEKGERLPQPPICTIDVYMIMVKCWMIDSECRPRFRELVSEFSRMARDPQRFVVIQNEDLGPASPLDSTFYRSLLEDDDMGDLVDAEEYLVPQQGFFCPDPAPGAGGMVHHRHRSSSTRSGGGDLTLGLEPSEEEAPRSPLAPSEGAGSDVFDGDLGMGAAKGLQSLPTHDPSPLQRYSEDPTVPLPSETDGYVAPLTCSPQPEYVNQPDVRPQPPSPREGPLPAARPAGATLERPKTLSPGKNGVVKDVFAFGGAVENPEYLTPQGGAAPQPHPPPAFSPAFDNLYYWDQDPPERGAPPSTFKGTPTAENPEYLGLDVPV

Compound	IC50 (Her-2 enzyme)	IC50 [1]	IC50 [2]	IC50 [3]	IC50 [4]	IC50 [5]	RTV d22 [6]	T/C (%) d22 [6]	Inhibition rate (%) d22 ([6]; listed as Positive control)
CCOCCOc1cc2ncnc(Nc3ccc(OCc4cccc(F)c4)c(Cl)c3)c2cc1NC(=O)/C=C/CN(C)C [Embodiment 11, (E)-N-(4-(4-(3-fluorobenzyloxy)3-chlorophenylamino)-7-(2-ethoxyethoxy)quinazolin-6-yl)-4-(dimethylamino)but-2-enamide]	262 nM	79.5 nM	2.93 µM	49.7 nM					
CCOCCOc1cc2ncnc(Nc3ccc(F)c(Cl)c3)c2cc1NC(=O)/C=C\Cl [Embodiment 32, (Z)—N-(4-(3-chloro-4-fluorophenylamino)-7-(2-ethoxyethoxy)quinazolin-6-yl)-3-chloroacrylamide]			4 µM	1.6 nM					
CCOCCOc1cc2ncnc(Nc3ccc(F)c(Cl)c3)c2cc1NC(=O)/C=C/Cl [Embodiment 31, (E)-N-(4-(3-chloro-4-fluorophenylamino)-7-(2-ethoxyethoxy)quinazolin-6-yl)-3-chloroacrylamide]				7.43 nM					
CCOCCOc1cc2ncnc(Nc3ccc(NCCS(C)(=O)=O)c(Cl)c3)c2cc1NC(=O)/C=C/CN(C)C [Embodiment 20, (E)-N-(4-(3-chloro-4-((2-(methylsulfonyl)ethyl)amino)phenylamino)-7-(2-ethoxyethoxy)quinazolin-6-yl)-4-(dimethylamino)but-2-enamide]		6.49 nM		65.6 nM	0.538 nM	12.7 nM			
C#CC(=O)Nc1cc2c(Nc3ccc(F)c(Cl)c3)ncnc2cc1OCCOCC [Embodiment 25, N-(4-(3-chloro-4-fluorophenylamino)-7-(2-ethoxyethoxy)quinazolin-6-yl)propiolamide]		11.4 nM		49.3 nM	1.47 nM	3.43 nM			
CCOCCOc1cc2ncnc(Nc3ccc(F)c(Cl)c3)c2cc1NC(=O)/C=C\C#N [Embodiment 38, (Z)—N-(4-(3-chloro-4-fluorophenylamino)-7-(2-ethoxyethoxy)quinazolin-6-yl)-3-cyanoacrylamide]		94.8 nM		18.4 nM	5.56 nM	0.68 nM			
CN(C)CC=CC(=O)Nc1cc2c(Nc3ccc(F)c(Cl)c3)ncnc2cc1O[C@H]1CCOC1 [Afatinib, N-[4-[(3-chloro-4-fluorophenyl)amino]-7-[[(3S)-tetrahydro-3-furyl]oxy]-6-quinazolinyl)-4-(dimethylamino)-but-2-enamide, reference compound]			6.78 µM				1.67 ± 0.20	22.44%	67.6** %
CCOCCOc1cc2ncnc(Nc3ccc(F)c(Cl)c3)c2cc1NC(=O)/C=C/C(F)(F)F [Embodiment 36, (E)-N-(4-(3-chloro-4-fluorophenylamino)-7-(2-ethoxyethoxy)quinazolin-6-yl)-4,4,4-trifluorobut-2-enamide]		148 nM		27.6 nM	0.153 nM	18.3 nM			
C=C(Cl)C(=O)Nc1cc2c(Nc3ccc(F)c(Cl)c3)ncnc2cc1OCCOCC [Embodiment 27, N-(4-(3-chloro-4-fluorophenylamino)-7-(2-ethoxyethoxy)quinazolin-6-yl)2-chloroacrylamide]		369 nM		37.1 nM	33.2 nM	3.72 nM			
C=C(F)C(=O)Nc1cc2c(Nc3ccc(F)c(Cl)c3)ncnc2cc1OCCOCC [Embodiment 26, N-(4-(3-chloro-4-fluorophenylamino)-7-(2-ethoxyethoxy)quinazolin-6-yl)-2-fluoroacrylamide]		54.5 nM		72.5 nM	0.538 nM	58.2 nM			
CCOCCOc1cc2ncnc(Nc3ccc(F)c(Cl)c3)c2cc1NC(=O)/C=C/Br [Embodiment 30, (E)-N-(4-(3-chloro-4-fluorophenylamino)-7-(2-ethoxyethoxy)quinazolin-6-yl)-3-bromoacrylamide]		297 nM		8.22 nM	4.87 nM	4 nM			
CCOCCOc1cc2ncnc(Nc3ccc(OCC(F)(F)F)c(Cl)c3)c2cc1NC(=O)/C=C/CN(C)C [Embodiment 13, (E)-N-(4-(3-chloro-4-(2,2,2-trifluoroethoxy)phenylamino)-7-(2-ethoxyethoxy)quinazolin-6-yl)-4-(dimethylamino)but-2-enamide]		64.1 nM		107 nM	2.9 nM	2.56 nM			
COC[C@H](C)Oc1cc2ncnc(Nc3ccc(F)c(Cl)c3)c2cc1NC(=O)/C=C/CN(C)C [Embodiment 3, (S,E)-N-(4-(3-chloro-4-fluorophenylamino)-7-(2-methoxy-1-methylethoxy)quinazolin-6-yl)-4-(dimethylamino)but-2-enamide]	482 nM	16.7 nM	1.96 µM	66.5 nM					
CCOCCOc1cc2ncnc(Nc3ccc(OCCOC)c(Cl)c3)c2cc1NC(=O)/C=C/CN(C)C [Embodiment 15, (E)-N-(4-(3-chloro-4-(2-methoxyethoxy)phenylamino)-7-(2-ethoxyethoxy)quinazolin-6-yl)-4-(dimethylamino)but-2-enamide]		20.1 nM		7.3 nM	3.43 nM	1.66 nM			
CCOCCOc1cc2ncnc(Nc3ccc(F)c(Cl)c3)c2cc1NC(=O)/C=C/C(=O)OC [Embodiment 37, methyl (E)-4-(4-((3-chloro-4-fluorophenylamino)-7-(2-ethoxyethoxy)quinazolin-6-yl)amino)-4-oxobut-2-enoate]		207 nM		35.2 nM	0.987 nM	21.6 nM			
C=C(Br)C(=O)Nc1cc2c(Nc3ccc(F)c(Cl)c3)ncnc2cc1OCCOCC [Embodiment 28, N-(4-(3-chloro-4-fluorophenylamino)-7-(2-ethoxyethoxy)quinazolin-6-yl)2-bromoacrylamide]		572 nM		39.4 nM	6.4 nM	15.1 nM			
C=CC(=O)Nc1cc2c(Nc3ccc(F)c(Cl)c3)ncnc2cc1OCCOCC [Embodiment 22, N-(4-(3-chloro-4-fluorophenylamino)-7-(2-ethoxyethoxy)quinazolin-6-yl)acrylamide]		6.01 nM		51.8 nM	0.153 nM	5.67 nM			
C=CS(=O)(=O)Nc1cc2c(Nc3ccc(F)c(Cl)c3)ncnc2cc1OCCOCC [Embodiment 24, N-(4-(3-chloro-4-fluorophenylamino)-7-(2-ethoxyethoxy)quinazolin-6-yl)ethenesulfonamide]		3.38 nM		13.7 nM	3.95 nM	130 nM			
CCOCCOc1cc2ncnc(Nc3ccc(F)c(Cl)c3)c2cc1NC(=O)/C=C/CN(CC)CC [Embodiment 33, (E)-N-(4-(3-chloro-4-fluorophenylamino)-7-(2-ethoxyethoxy)quinazolin-6-yl)-4-(diethylamino)but-2-enamide]	10.9 nM		3.53 µM						
CCOCCOc1ccc(Nc2ncnc3cc(OCCOCC)c(NC(=O)/C=C/CN(C)C)cc23)cc1Cl [Embodiment 17, (E)-N-(4-(3-chloro-4-(2-ethoxyethoxy)phenylamino)-7-(2-ethoxyethoxy)quinazolin-6-yl)-4-(dimethylamino)but-2-enamide]		13.7 nM		6.17 nM	0.343 nM	2.53 nM			
